For series [1], the system named is neuronal redox state (roGFP2). In words: roGFP2 redox reporter in primary neurons. The format is cell-based. Conditions: 30 min treatment. As to the method:
[…]. Rat coronal brain slice explants co-transfected with YFP and Tau-4R (FIG. 16B) or striatal brain slice explants co-transfected with YFP and mHTT (FIG. 16C) were treated with LC-43 or DMSO carrier-only for 3 days. The respective regions of each brain slice were then scored for numbers of healthy (FIG. 16B) pyramidal or (FIG. 16C) medium spiny neurons remaining. Data are normalized to the negative control condition set to 100% and plotted as means±SEM. In FIG. 16D, The confocal images shown are maximal z-stacks of 0.5 μm steps (˜20 images per stack). (Bottom) Reduction of neuronal redox state by LC-43. Left, Primary neurons were co-transfected with mCherry (to positively identify transfected neurons) and the genetically encoded ratiometric redox reporter roGFP2. Four days later, the culture medium was changed into an identical formulation except without conventional antioxidant additives. 24 hours after this medium change, LOC-43 or DMSO carrier-only were added to the neurons and images were taken after 30 minutes or 24 hours of treatment as indicated. Imaging was done using a Leica SP5 inverted confocal microscope through a 63× water-immersion objective. Images of 40 individual neurons for each condition were collected at 405 and 488 nm and analysis of the 405/488 ratio for each image pair was done using CellProfiler (Broad Institute).
As mentioned, we synthesized several fluorine-containing analogs of LOC14 (analogs LC-43 and LC-40). Addition of fluorine was the only modification that was tolerated at the ortho position without a complete loss of activity in cells and in targeting PDI in vitro (Table 9). […] Additionally, we evaluated LC-43 using a genetically encoded redox reporter transfected into neurons. […] In contrast, treatment with the non-selective reducing agent dithiothreitol (DTT) produces an immediate and dramatic reduction in the roGFP2 fluorescence ratio that leads rapidly to cell degeneration and death (FIG. 16D). […]

The target of series [2] is T1, human catalytic PDI A1 a domain (PDIa) (Homo sapiens, UniProt P07237).
T1 construct: made in house; host or cells: Escherichia coli BL21-Gold (DE3)
In words: Isothermal titration calorimetry (ITC) binding to PDIa. The conditions noted are these: Tables 5-13; NA = not active; read-out: Kd. A general note: In ITC the heat of successive injections is recorded.

Series [3] deals with PC12 mHTTQ103 cells. In words: Rescue of PC12 cells from mHTTQ103-induced cell death. Format: cell-based, rat. The conditions noted are these: Tables 5-13, PC12 cells.
Series [4] addresses T2, PDIa C56S mutant (PDI C39S) (Homo sapiens, UniProt P07237, C56S).
T2 construct: made in house; host or cells: E. coli
In words: MALDI-TOF mass spectrometry with PDIa C56S mutant. The format is binding. The text has this:
We also explored the feasibility of generating a crystal structure of PDI bound to one of these inhibitors for structure-based analog design. LOC14 is a reversible inhibitor of PDI and therefore may not remain bound to the protein in crystallization trays. To trap the LOC14-PDI complex, we generated a PDI C39S mutant that should not release the compound from PDI. To confirm this mechanism of binding, we performed MALDI-TOF mass-spectrometry experiments with PDI C39S in the presence and absence of LOC14 (FIG. 4). […] PDI C39S treated with LOC14 gave 4 peaks: main mass peak at 15,557 Da (change of +152 which corresponds to the bound benzoisothiazolone moiety to PDI C39S), a peak at 15,735 Da (corresponding to the benzoisothiazolone moiety bound to C39S-gluconoylated protein), a peak at 15,404 (the mass of unbound C39S protein), and a peak at 15,584 Da (the mass of unbound C39S-gluconoylated protein). […] The incomplete binding is most likely due to the presence of reducing agent in the buffer. […]
To confirm that binding of LOC14 to PDI is reversible, we pre-treated a C56S mutant, as before, with LOC14, BIT, or iodoacetamide, an irreversible modifier of cysteines. Once the PDI-inhibitor complexes were formed, we treated the samples with 2.7 mM DTT, a reducing agent, and analyzed the complex by MALDI-TOF.

Series [5] is described as follows: Solubility (stock solvent). The conditions noted are these: Tables 5-13; solvent not given (DMSO in Table 1).
The subject of series [6] is ROS in PC12 mHTTQ103 cells. In words: CellROX Orange flow cytometry ROS assay. Format: cell-based, rat. The conditions noted are these: 3 μM, 24 hours, mHTT-induced cells. As to the method: (§1) In FIG. 14B, cells were stained with 5 μM CeIIROX Orange dye to assay cellular ROS production. Representative data from one of three flow cytometry replicates are shown. In FIG. 14C, an aliquot from each sample was used for assessing viability, using Trypan blue dye on ViCell. […] Data are plotted as mean±SD with n=3.
(§2) One goal was to further understand why modulating PDI activity can be neuroprotective in AD and HD models. Previously, we saw that LOC14 alters PDI's redox state from the reduced to the oxidized conformation (Kaplan et al. 2015). In vivo, there are oxidoreductase enzymes, such as ERO1, that regulate PDI's redox states and, as a byproduct of the redox reaction, pass electrons to oxygen as a final electron acceptor, generating H2O2. We hypothesized that LOC14 might function in place of oxidoreductases such as ERO1, oxidizing PDI without generating H2O2 and that this decrease in ROS production is what is causing the neuroprotection in cells and neurons. […] Cells were then stained with the fluorescent ROS-sensitive dye, CeIIROX Orange, and ROS assayed by flow cytometry. Induced mHTT-expressing cells had elevated levels of ROS compared to cells not expressing mHTT (uninduced cells) and these ROS were decreased in cells treated with LOC14 (FIG. 14B). […]

Series [7] concerns PC12 mHTTQ103 cells. In words: Trypan blue viability assay. The format is cell-based, rat. Conditions: 3 μM, 24 hours. The procedure:
as §1, §2

Molecules are shown by their SMILES. Values after ≈ are worked out from the molar mass of the structure shown.

T2 sequence (P07237 18-134 C56S): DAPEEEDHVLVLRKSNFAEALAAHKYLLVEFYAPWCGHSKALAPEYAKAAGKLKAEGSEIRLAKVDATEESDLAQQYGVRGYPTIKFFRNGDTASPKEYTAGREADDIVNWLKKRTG
T1 sequence (P07237 18-134): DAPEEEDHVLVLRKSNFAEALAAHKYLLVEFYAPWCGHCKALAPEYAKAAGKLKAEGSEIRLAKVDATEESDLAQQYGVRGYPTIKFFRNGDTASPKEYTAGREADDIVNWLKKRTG

As for `O[C@H](CS)[C@H](O)CS` (racemic) [DTT, dithiothreitol, reference compound], the “neuronal redox state (roGFP2)” value in series [1] was “immediate and drastic reduction”.

As for `O=c1[nH]sc2ccccc12` [BIT, benzoisothiazolone, reference compound], the Kd in series [2] is 143 nM. Moreover, in series [3] (Rattus norvegicus, PC-12, read-out: EC50), the EC50 turned out to be 362 nM. Besides, the “Max Viability (%)” value in series [3] amounted to 66%. Also, the “reversibility of binding to PDIa C56S after 2.7 mM DTT” value in series [4] is reported as “bind reversibly to C53”. In series [5], the “Solubility” value was determined as 100 mM (≈ 15.1 mg/mL).

With `O=C(C1CC1)N1CCN(Cn2oc3ccccc3c2=O)CC1` [OxyLOC14], the “cellular ROS (CellROX Orange flow cytometry)” value in series [6] is on record as “did not decrease ROS”. Also, the “protection from mHTT in trypan blue viability assay” value in series [7] is given as “did not show any protection from mHTT”.

On to `NC(=O)CI` [iodoacetamide], for which the “reversibility of binding to PDIa C56S after 2.7 mM DTT” value in series [4] is listed as “irreversible”.

Usually Kd stands for a measure of binding affinity in units of concentration. One may read the EC50 as the concentration that produces a half-maximal response. By Solubility is commonly meant the concentration that dissolves in the medium under given conditions. Higher therefore signals a readily soluble substance.

The values are drawn from US20220380383A1, “NEUROPROTECTIVE PDI MODULATING SMALL MOLECULES AND METHODS OF USE THEREOF” (THE TRUSTEES OF COLUMBIA UNIVERSITY IN THE CITY OF NEW YORK, priority 2018, published 2022).
